Data taken from PubChem BioAssay AID192 (DTP/NCI, 2004).
Inconclusive results and toxic doses are left out. The calls were made as follows: active = survival T/C of 150% or more; inactive = T/C below 125% in these data.

Test system: BDF1 mice, B16 melanoma ip, median survival T/C
Experiment: NCI In Vivo Anticancer Drug Screen. Data for tumor model B16 Melanoma (intraperitoneal) in B6D2F1 (BDF1) mice
Details: endpoint: median survival time, higher = longer survival
In short: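 Read-out: survival or tumor size, given as treated/control ratio. Controls received vehicle only; animals bore transplantable tumors.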

[1] = dose: 6.25 mg/kg/injection, schedule: Q01DX009 (ip), vehicle: saline with Tween-80
[2] = dose: 12.5 mg/kg/injection, schedule: Q01DX009 (ip), vehicle: saline with Tween-80
[3] = dose: 25.0 mg/kg/injection, schedule: Q01DX009 (ip), vehicle: saline with Tween-80
[4] = dose: 50.0 mg/kg/injection, schedule: Q01DX009 (ip), vehicle: saline with Tween-80
[5] = dose: 100.0 mg/kg/injection, schedule: Q04DX003 (ip), vehicle: saline with Tween-80
[6] = dose: 200.0 mg/kg/injection, schedule: Q04DX003 (ip), vehicle: saline with Tween-80
[7] = dose: 400.0 mg/kg/injection, schedule: Q04DX003 (ip), vehicle: saline with Tween-80
[8] = dose: 100.0 mg/kg/injection, schedule: Q01DX009 (ip), vehicle: saline with Tween-80
[9] = dose: 200.0 mg/kg/injection, schedule: Q01DX009 (ip), vehicle: saline with Tween-80
[10] = dose: 400.0 mg/kg/injection, schedule: Q01DX009 (ip), vehicle: saline with Tween-80
[11] = dose: 200.0 mg/kg/injection, schedule: Q01DX009 (ip), vehicle: Klucel (hydroxypropylcellulose) (HPC)
[12] = dose: 25.0 mg/kg/injection, schedule: Q01DX009 (ip), vehicle: Klucel (hydroxypropylcellulose) (HPC)

Measured: T/C

NNc1n[nH]c(=S)n1N
inactive: dose: 0.78 mg/kg/injection, schedule: Q01DX009 (ip), vehicle: saline with Tween-80 88 % of control | dose: 1.56 mg/kg/injection, schedule: Q01DX009 (ip), vehicle: saline with Tween-80 93 % of control | dose: 3.13 mg/kg/injection, schedule: Q01DX009 (ip), vehicle: saline with Tween-80 90 % of control | [1] 86 % of control

C(=N\C(/N=C/c1ccco1)c1ccco1)/c1ccco1
inactive: dose: 40.0 mg/kg/injection, schedule: Q01DX009 (ip), vehicle: Klucel (hydroxypropylcellulose) (HPC) 94 % of control | dose: 80.0 mg/kg/injection, schedule: Q01DX009 (ip), vehicle: Klucel (hydroxypropylcellulose) (HPC) 89 % of control | dose: 160.0 mg/kg/injection, schedule: Q01DX009 (ip), vehicle: Klucel (hydroxypropylcellulose) (HPC) 97 % of control | dose: 320.0 mg/kg/injection, schedule: Q01DX009 (ip), vehicle: Klucel (hydroxypropylcellulose) (HPC) 92 % of control

O=C(Nc1ccc(F)cc1)C(c1ccccc1)c1ccccc1
inactive: [2] 98 % of control | [3] 92 % of control | [4] 89 % of control

CCCCC(CCCC)c1ccccn1
inactive: [1] 104 % of control | [2] 108 % of control | [3] 102 % of control

CCOC(=O)CN=NNc1[nH]ncc1C(N)=O
inactive: [5] 100 % of control | [6] 104 % of control | [7] 111 % of control

Cc1cc(C)c(OC2=C(c3c(C)cc(C)cc3C)C(=O)c3ccccc32)c(C)c1
inactive: [4] 104 % of control | [8] 100 % of control | [9] 98 % of control | [10] 91 % of control

CCC(CC)OCCN1CCN(CCCN2c3ccccc3Sc3ccc(C(F)(F)F)cc32)CC1
inactive: dose: 0.5 mg/kg/injection, schedule: Q01DX009 (ip), vehicle: saline with Tween-80 109 % of control | dose: 1.0 mg/kg/injection, schedule: Q01DX009 (ip), vehicle: saline with Tween-80 103 % of control

O=S(=O)(O)c1ccc(-c2c3nc(c(-c4ccc(S(=O)(=O)O)cc4)c4ccc([nH]4)c(-c4ccc(S(=O)(=O)O)cc4)c4nc(c(-c5ccc(S(=O)(=O)O)cc5)c5ccc2[nH]5)C=C4)C=C3)cc1
inactive: dose: 6.25 mg/kg/injection, schedule: Q01DX009 (ip), vehicle: saline 104 % of control | dose: 12.5 mg/kg/injection, schedule: Q01DX009 (ip), vehicle: saline 105 % of control | dose: 25.0 mg/kg/injection, schedule: Q01DX009 (ip), vehicle: saline 117 % of control | dose: 50.0 mg/kg/injection, schedule: Q01DX009 (ip), vehicle: saline 110 % of control

CNC(=O)CCN1CCN(CC/C=C2\c3ccccc3Sc3ccc(Cl)cc32)CC1
inactive: dose: 0.12 mg/kg/injection, schedule: Q01DX009 (ip), vehicle: saline 105 % of control | dose: 0.51 mg/kg/injection, schedule: Q01DX009 (ip), vehicle: saline 100 % of control | dose: 1.03 mg/kg/injection, schedule: Q01DX009 (ip), vehicle: saline 87 % of control | dose: 2.06 mg/kg/injection, schedule: Q01DX009 (ip), vehicle: saline 95 % of control | dose: 4.12 mg/kg/injection, schedule: Q01DX009 (ip), vehicle: saline 97 % of control

O=C1CN=C(c2ccccc2Cl)c2cc(Cl)ccc2N1
inactive: dose: 0.01 mg/kg/injection, schedule: Q01DX009 (ip), vehicle: Klucel (hydroxypropylcellulose) (HPC) 100 % of control | dose: 0.02 mg/kg/injection, schedule: Q01DX009 (ip), vehicle: Klucel (hydroxypropylcellulose) (HPC) 86 % of control | dose: 0.04 mg/kg/injection, schedule: Q01DX009 (ip), vehicle: Klucel (hydroxypropylcellulose) (HPC) 86 % of control | dose: 0.09 mg/kg/injection, schedule: Q01DX009 (ip), vehicle: Klucel (hydroxypropylcellulose) (HPC) 86 % of control | dose: 0.39 mg/kg/injection, schedule: Q01DX009 (ip), vehicle: Klucel (hydroxypropylcellulose) (HPC) 91 % of control | dose: 0.78 mg/kg/injection, schedule: Q01DX009 (ip), vehicle: Klucel (hydroxypropylcellulose) (HPC) 88 % of control | dose: 1.56 mg/kg/injection, schedule: Q01DX009 (ip), vehicle: Klucel (hydroxypropylcellulose) (HPC) 86 % of control | dose: 3.12 mg/kg/injection, schedule: Q01DX009 (ip), vehicle: Klucel (hydroxypropylcellulose) (HPC) 89 % of control | [11] 90 % of control | dose: 0.6 micrograms/kg/injection, schedule: Q01DX009 (ip), vehicle: Klucel (hydroxypropylcellulose) (HPC) 111 % of control | dose: 1.2 micrograms/kg/injection, schedule: Q01DX009 (ip), vehicle: Klucel (hydroxypropylcellulose) (HPC) 104 % of control | dose: 2.5 micrograms/kg/injection, schedule: Q01DX009 (ip), vehicle: Klucel (hydroxypropylcellulose) (HPC) 105 % of control | dose: 5.0 micrograms/kg/injection, schedule: Q01DX009 (ip), vehicle: Klucel (hydroxypropylcellulose) (HPC) 95 % of control | dose: 10.0 micrograms/kg/injection, schedule: Q01DX009 (ip), vehicle: Klucel (hydroxypropylcellulose) (HPC) 112 % of control

Cc1ccc(S(=O)(=O)c2ccc(Sc3cccc[n+]3[O-])c3nonc23)cc1
inactive: dose: 80.0 mg/kg/injection, schedule: Q04DX002 (ip), vehicle: saline with Tween-80 97 % of control | dose: 160.0 mg/kg/injection, schedule: Q04DX002 (ip), vehicle: saline with Tween-80 102 % of control | dose: 320.0 mg/kg/injection, schedule: Q04DX002 (ip), vehicle: saline with Tween-80 100 % of control

ClN=C(c1ccccc1)c1ccccc1
inactive: [12] 105 % of control | dose: 50.0 mg/kg/injection, schedule: Q01DX009 (ip), vehicle: Klucel (hydroxypropylcellulose) (HPC) 105 % of control

CCc1ccccc1NC(=O)C(c1ccccc1)c1ccccc1
inactive: [3] 99 % of control | [4] 97 % of control | [8] 92 % of control

CC(C)(C)c1cc(C[P+](c2ccccc2)(c2ccccc2)c2ccccc2)cc(C(C)(C)C)c1O
inactive: dose: 0.78 mg/kg/injection, schedule: Q01DX009 (ip), vehicle: saline 111 % of control | dose: 1.56 mg/kg/injection, schedule: Q01DX009 (ip), vehicle: saline 109 % of control | dose: 3.12 mg/kg/injection, schedule: Q01DX009 (ip), vehicle: saline 104 % of control | dose: 3.25 mg/kg/injection, schedule: Q04DX003 (ip), vehicle: saline 94 % of control | dose: 4.6 mg/kg/injection, schedule: Q01DX009 (ip), vehicle: saline 86 % of control

Cc1ccc(S(=O)(=O)N(C)C)cc1N
inactive: [8] 97 % of control | [5] 100 % of control | [9] 118 % of control | [6] 102 % of control | [10] 102 % of control | [7] 100 % of control

CCCCC(CCCC)(C(N)=O)C(=O)OCC
inactive: dose: 100.0 mg/kg/injection, schedule: Q01DX009 (ip), vehicle: Klucel (hydroxypropylcellulose) (HPC) 106 % of control | [11] 100 % of control | dose: 400.0 mg/kg/injection, schedule: Q01DX009 (ip), vehicle: Klucel (hydroxypropylcellulose) (HPC) 103 % of control

C[n+]1ccccc1/C=C/c1cccc([N+](=O)[O-])c1
inactive: dose: 5.0 mg/kg/injection, schedule: Q01DX009 (ip), vehicle: saline with Tween-80 110 % of control | dose: 5.0 mg/kg/injection, schedule: Q04DX003 (ip), vehicle: saline with Tween-80 105 % of control | dose: 10.0 mg/kg/injection, schedule: Q01DX009 (ip), vehicle: saline with Tween-80 100 % of control | dose: 20.0 mg/kg/injection, schedule: Q01DX009 (ip), vehicle: saline with Tween-80 100 % of control | dose: 20.0 mg/kg/injection, schedule: Q04DX003 (ip), vehicle: saline with Tween-80 89 % of control

Cc1cc(O)c2c(c1O)C(=O)c1cccc(O)c1C2=O
inactive: dose: 0.75 mg/kg/injection, schedule: Q01DX009 (ip), vehicle: Klucel (hydroxypropylcellulose) (HPC) 92 % of control | dose: 1.5 mg/kg/injection, schedule: Q01DX009 (ip), vehicle: Klucel (hydroxypropylcellulose) (HPC) 87 % of control

Cc1ccc(NC(=O)NC(C)C)c(C)c1
inactive: dose: 6.25 mg/kg/injection, schedule: Q01DX009 (ip), vehicle: Klucel (hydroxypropylcellulose) (HPC) 101 % of control | dose: 12.5 mg/kg/injection, schedule: Q01DX009 (ip), vehicle: Klucel (hydroxypropylcellulose) (HPC) 95 % of control | [12] 94 % of control

Cc1nn(CCO)c(C)c1N=[N+]([O-])c1c(C)nn(CCO)c1C
inactive: dose: 15.0 mg/kg/injection, schedule: Q01DX011 (ip), vehicle: saline with Tween-80 88 % of control
